Experimental data as given in paper PMC7377239, “Cardiovascular Effects of Polychlorinated Biphenyls and Their Major Metabolites” (Environmental Health Perspectives, 2020).

Key:
[1] = test system: iCell endothelial cells (human iPSC-derived ECs); assay: Tube formation (tubulogenesis) assay in iCell endothelial cells, 18 h; assay type: cell-based; conditions: Homo sapiens, Endothelial cell, endothelial cells (endo), 18 hr
Summary of the method: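 Tube formation was measured by calcein AM imaging after overnight compound exposure (37°C, 0.5% DMSO vehicle) of human iPSC-derived ECs, 7,500/well, on reduced-growth-factor Geltrex in starvation medium. Vehicle-normalized data fitted to four-parameter logistic; POD set at one vehicle SD; without response, 100 μM taken as NOAEL.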

[2] = test system: iCell endothelial cells (human iPSC-derived ECs); assay: High-content imaging cytotoxicity in iCell endothelial cells, 24 h; assay type: cell-based; conditions: Homo sapiens, Endothelial cell, endothelial cells (endo), 24 hr
Summary of the method: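 Readouts were vehicle-normalised and fitted to a four-parameter logistic model. POD was set at one SD beyond 0.5% DMSO control means, and 100 µM was assigned when no response was seen. Cells were monolayers of iCell endothelial cells imaged after 24 h compound exposure using nuclear, mitochondrial and calcein dyes.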

Oc1ccccc1-c1ccc(Cl)cc1 [2'-OH-PCB 3]
minimal effective concentration ([1]; tube formation mtl, read-out: POD endo.mtl.18hr): 13.4 µM | minimal effective concentration ([1]; tube formation tlps, read-out: POD endo.tlps.18hr): 9.27 µM | minimal effective concentration ([1]; tube formation tta, read-out: POD endo.tta.18hr): 29.9 µM | minimal effective concentration ([1]; tube formation ttl, read-out: POD endo.ttl.18hr): 23.1 µM | minimal effective concentration ([2]; cyto, read-out: POD endo.cyto.24hr): 44.3 µM | minimal effective concentration ([2]; mito, read-out: POD endo.mito.24hr): 44.3 µM | minimal effective concentration ([2]; mitoint, read-out: POD endo.mitoint.24hr): 100 µM | minimal effective concentration ([2]; nma, read-out: POD endo.nma.24hr): 1.82 µM | minimal effective concentration ([2]; tc, read-out: POD endo.tc.24hr): 68.2 µM
